Assay results reported in patent US20120213827A1, “PROCESS FOR CONTROLLED CRYSTALLIZATION OF AN ACTIVE PHARMACEUTICAL INGREDIENT FROM SUPERCOOLED LIQUID STATE BY HOT MELT EXTRUSION” (priority 2011, published 2012).

Assay: Particle size analysis of dalcetrapib crystals (Malvern MasterSizer 2000, laser diffraction)
Format: physicochemical
Conditions: dispersant 0.1N HCl, sonicated 10 minutes
Method: The particle size distribution of dalcetrapib crystals from the bulk API and in the matrix of a hot-melt extruded composition produced according to Example 1 was determined according to the following method:
(§1) A Malvern MasterSizer 2000 was used for particle size measurement. The Fraunhofer optical model employed for analysis. The sample handling unit was a Hydro 2000S sonicator: Elma Model 9331. Sample measurement time was 20,000 snaps. The sample background time was 20,000 snaps. The dispersant media was 0.1N HCl, and the pump/stir speed was 2000 RPM.
Sample preparation was as follows: About 10-15 mg of the sample was weighed in 20 mL scintillation vial and 10 mL of de-ionized 0.1N HCl was added. The sample was vortexed for 15 seconds and then sonicated for 10 minutes @ 100% power.
The particle size distribution of dalcetrapib crystals in the matrices of hot-melt extruded compositions produced according to Example 5 was determined according to the following method:
as §1, with “MasterSizer®” for “MasterSizer”, “Fraunhofer®” for “Fraunhofer”, “RPM” for “RPM.”
Sample preparation was as follows: About 10-15 mg of the sample was weighed in a 20 mL scintillation vial and 10 mL of de-ionized 0.1N HCl was added. The sample was vortexed for 15 seconds and then sonicated for 10 minutes at 100% power.

## CCC(CC)CC1(C(=O)Nc2ccccc2SC(=O)C(C)C)CCCCC1 [bulk dalcetrapib, dalcetrapib]
  mean particle diameter D(0.1): 1.493 μm
  mean particle diameter D(0.5): 12.317 μm
  mean particle diameter D(0.9): 28.828 μm
